Measurements reported in PubChem BioAssay AID330 (DTP/NCI, 2004).
Where “and” joins values, the source holds several entries; their conditions need not be identical. Equal entries are not always repeated. Toxic doses and inconclusive results are not listed. Rule for the calls: active = survival T/C of 150% or more; inactive = T/C below 125% in these data.

Tested on: P388 leukemia ip, CD2F1 mice, survival T/C
Experiment: NCI In Vivo Anticancer Drug Screen. Data for tumor model P388 Leukemia (intraperitoneal) in CD2F1 (CDF1) mice
Conditions: endpoint: median survival time, higher = longer survival
Procedure, shortened: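 Mice carrying the transplanted tumor received test compound or vehicle. Survival was recorded in each group, and the value is the treated-group measurement divided by that of the vehicle-treated control group.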

[1] = dose: 50.0 mg/kg/injection, schedule: Q01DX009 (ip), vehicle: Klucel (hydroxypropylcellulose) (HPC)
[2] = dose: 100.0 mg/kg/injection, schedule: Q01DX009 (ip), vehicle: Klucel (hydroxypropylcellulose) (HPC)
[3] = dose: 60.0 mg/kg/injection, schedule: Q01DX005 (ip), vehicle: saline with Tween-80
[4] = dose: 120.0 mg/kg/injection, schedule: Q01DX005 (ip), vehicle: saline with Tween-80
[5] = dose: 240.0 mg/kg/injection, schedule: Q01DX005 (ip), vehicle: saline with Tween-80
[6] = dose: 50.0 mg/kg/injection, schedule: Q01DX009 (ip), vehicle: saline with Tween-80
[7] = dose: 100.0 mg/kg/injection, schedule: Q01DX009 (ip), vehicle: saline with Tween-80
[8] = dose: 200.0 mg/kg/injection, schedule: Q01DX009 (ip), vehicle: saline with Tween-80
[9] = dose: 100.0 mg/kg/injection, schedule: Q04DX002 (ip), vehicle: saline with Tween-80
[10] = dose: 200.0 mg/kg/injection, schedule: Q04DX002 (ip), vehicle: saline with Tween-80
[11] = dose: 100.0 mg/kg/injection, schedule: Q01DX001 (ip), vehicle: saline with Tween-80
[12] = dose: 200.0 mg/kg/injection, schedule: Q01DX001 (ip), vehicle: saline with Tween-80
[13] = dose: 400.0 mg/kg/injection, schedule: Q01DX001 (ip), vehicle: saline with Tween-80
[14] = dose: 100.0 mg/kg/injection, schedule: Q04DX003 (ip), vehicle: Klucel (hydroxypropylcellulose) (HPC)
[15] = dose: 200.0 mg/kg/injection, schedule: Q04DX003 (ip), vehicle: Klucel (hydroxypropylcellulose) (HPC)
[16] = dose: 400.0 mg/kg/injection, schedule: Q04DX003 (ip), vehicle: Klucel (hydroxypropylcellulose) (HPC)
[17] = dose: 50.0 mg/kg/injection, schedule: Q01DX005 (ip), vehicle: saline with Tween-80
[18] = dose: 100.0 mg/kg/injection, schedule: Q01DX005 (ip), vehicle: saline with Tween-80
[19] = dose: 200.0 mg/kg/injection, schedule: Q01DX005 (ip), vehicle: saline with Tween-80
[20] = dose: 50.0 mg/kg/injection, schedule: Q01DX009 (ip), vehicle: saline
[21] = dose: 100.0 mg/kg/injection, schedule: Q01DX009 (ip), vehicle: saline
[22] = dose: 12.5 mg/kg/injection, schedule: Q01DX009 (ip), vehicle: saline
[23] = dose: 25.0 mg/kg/injection, schedule: Q01DX009 (ip), vehicle: saline
[24] = dose: 50.0 mg/kg/injection, schedule: Q01DX005 (ip), vehicle: Klucel (hydroxypropylcellulose) (HPC)
[25] = dose: 200.0 mg/kg/injection, schedule: Q01DX009 (ip), vehicle: saline
[26] = dose: 100.0 mg/kg/injection, schedule: Q01DX005 (ip), vehicle: Klucel (hydroxypropylcellulose) (HPC)
[27] = dose: 200.0 mg/kg/injection, schedule: Q01DX005 (ip), vehicle: Klucel (hydroxypropylcellulose) (HPC)

Measured: T/C

COc1cccc(C2C(C#N)C(=O)NC(=O)C2C#N)c1 (stereo not drawn)
inactive: [1] 102 % of control | [2] 100 % of control | dose: 200.0 mg/kg/injection, schedule: Q01DX009 (ip), vehicle: Klucel (hydroxypropylcellulose) (HPC) 99 % of control

CCC(O)C1Sc2ccccc2N1C (stereo not drawn)
inactive: [3] 104 % of control | [4] 101 % of control | [5] 106 % of control

C[Si](C)(C)S[Si](C)(C)C
inactive: [1] 106 % of control | [2] 100 % of control

CC(C)CC(N)C(=O)NC(Cc1cc2ccccc2[nH]1)C(=O)O (stereo not drawn)
inactive: [6] 101 % of control | [7] 107 % of control | [8] 104 % of control

CC1(C)C(c2ccccc2)C1(Cl)Cl (stereo not drawn)
inactive: [9] 99 % of control | [10] 93 % of control

O=C(NC(=S)c1ccc(Br)cc1)NS(=O)(=O)c1ccc(Cl)cc1
inactive: [11] 96 % of control | [12] 92 % of control | [13] 102 % of control

C=CCC1(CCC)C(=O)NC(=S)NC1=O
inactive: [6] 110 % of control | [7] 117 % of control | [8] 115 % of control

OCC1(CO)C(O)C2CCN1CC2 (stereo not drawn)
inactive: [14] 108 % of control | [15] 110 % of control | [16] 108 % of control

COC(=O)c1c(-c2ccccc2)c(C=O)n(C)c1C
inactive: [17] 99 % of control | [18] 98 % of control | [19] 91 % of control

COc1ccc2cc(N3CCCC3)ccc2c1
inactive: dose: 25.0 mg/kg/injection, schedule: Q04DX003 (ip), vehicle: saline 105 % of control | dose: 50.0 mg/kg/injection, schedule: Q04DX003 (ip), vehicle: saline 96 % of control | dose: 100.0 mg/kg/injection, schedule: Q04DX003 (ip), vehicle: saline 100 % of control and 104 % of control | dose: 400.0 mg/kg/injection, schedule: Q04DX003 (ip), vehicle: saline 107 % of control

OC(COc1c2ccccc2nc2ccccc12)CN1CCOCC1 (stereo not drawn)
inactive: [17] 99 % of control | [18] 93 % of control

CCOC(=O)C1C(=O)N(C)C(=O)N1c1ccc(C)cc1 (stereo not drawn)
inactive: [3] 98 % of control | [4] 87 % of control

N#CC(C#N)=CNc1ccccc1
inactive: [6] 100 % of control | [7] 106 % of control | [8] 104 % of control

O=C(O)CCCC12CCC(CCCC(=O)O)(CC1)CC2
inactive: [14] 99 % of control | [15] 97 % of control | [16] 104 % of control

Cc1ccc(S(=O)(=O)C(CC(=O)CCN(C)C)c2ccccc2)cc1 (stereo not drawn)
inactive: dose: 25.0 mg/kg/injection, schedule: Q04DX002 (ip), vehicle: saline 100 % of control | [20] 96 % of control | dose: 50.0 mg/kg/injection, schedule: Q04DX002 (ip), vehicle: saline 103 % of control and 95 % of control | [21] 102 % of control | dose: 100.0 mg/kg/injection, schedule: Q04DX002 (ip), vehicle: saline 100 % of control | dose: 200.0 mg/kg/injection, schedule: Q04DX002 (ip), vehicle: saline 100 % of control

O=C1CS/C(=C/Cc2nc3ccccc3s2)N1
inactive: [3] 108 % of control | [4] 97 % of control | [5] 102 % of control

CCSC1C(=O)N(C)C(SCC)C(=O)N1C (stereo not drawn)
inactive: [22] 103 % of control | [23] 109 % of control | [20] 100 % of control and 86 % of control

CC1=CC(=O)c2c(O)c3c(c(O)c2C1=O)C1C(O)C(C3=O)C23C(=O)c4c(O)c(C)cc(O)c4C(O)=C2C(=O)CC(O)C13 (stereo not drawn)
inactive: dose: 1.5 mg/kg/injection, schedule: Q01DX005 (ip), vehicle: Klucel (hydroxypropylcellulose) (HPC) 101 % of control | dose: 3.0 mg/kg/injection, schedule: Q01DX005 (ip), vehicle: Klucel (hydroxypropylcellulose) (HPC) 115 % of control | dose: 6.0 mg/kg/injection, schedule: Q01DX005 (ip), vehicle: Klucel (hydroxypropylcellulose) (HPC) 115 % of control | dose: 12.0 mg/kg/injection, schedule: Q01DX005 (ip), vehicle: Klucel (hydroxypropylcellulose) (HPC) 113 % of control | dose: 12.5 mg/kg/injection, schedule: Q01DX005 (ip), vehicle: Klucel (hydroxypropylcellulose) (HPC) 108 % of control | dose: 25.0 mg/kg/injection, schedule: Q01DX005 (ip), vehicle: Klucel (hydroxypropylcellulose) (HPC) 105 % of control | [24] 105 % of control

COc1ccc2ccc3c(c2c1)C(=O)CC3
inactive: dose: 12.5 mg/kg/injection, schedule: Q01DX009 (ip), vehicle: distilled water + Tween-80 101 % of control | dose: 25.0 mg/kg/injection, schedule: Q01DX009 (ip), vehicle: distilled water + Tween-80 98 % of control | dose: 50.0 mg/kg/injection, schedule: Q01DX009 (ip), vehicle: distilled water + Tween-80 107 % of control | dose: 100.0 mg/kg/injection, schedule: Q01DX009 (ip), vehicle: distilled water + Tween-80 98 % of control | dose: 200.0 mg/kg/injection, schedule: Q01DX009 (ip), vehicle: distilled water + Tween-80 98 % of control

CCOC(=O)C1=S=C(SCCO)N(C)C1=O
inactive: [9] 95 % of control | [10] 103 % of control | dose: 400.0 mg/kg/injection, schedule: Q04DX002 (ip), vehicle: saline with Tween-80 97 % of control

N#Cc1ccc(=O)[nH]c1O
inactive: [6] 99 % of control | [7] 100 % of control

COc1ccc2c(=O)cc(-c3ccccc3)[nH]c2c1
inactive: [22] 90 % of control | [23] 98 % of control | [20] 114 % of control | dose: 65.0 mg/kg/injection, schedule: Q01DX009 (ip), vehicle: saline 118 % of control | [21] 117 % of control and 118 % of control | [25] 99 % of control

CC1=C(C)C(C)(C)OC1=O
inactive: [11] 100 % of control | [12] 100 % of control | [13] 104 % of control

O=C(O)CCNC(Cc1ccc(O)cc1)C(=O)O (stereo not drawn)
inactive: [24] 96 % of control | [26] 102 % of control | [27] 103 % of control

O=C1Nc2cccnc2NC2=C1CSC2
inactive: [3] 110 % of control | [4] 97 % of control | [5] 98 % of control

O=C(c1ccc([N+](=O)[O-])cc1)c1cnc2nc(-c3ccccc3)c(-c3ccccc3)nn12
inactive: dose: 12.5 mg/kg/injection, schedule: Q01DX005 (ip), vehicle: saline with Tween-80 99 % of control | dose: 25.0 mg/kg/injection, schedule: Q01DX005 (ip), vehicle: saline with Tween-80 97 % of control | [17] 88 % of control and 93 % of control | [18] 89 % of control | [19] 96 % of control

Clc1n[nH]c(Cl)n1
inactive: [7] 95 % of control

Cc1ccc2c(c1)N=C(Nc1ccccc1)N=S2(C)=O (stereo not drawn)
inactive: dose: 12.5 mg/kg/injection, schedule: Q01DX009 (ip), vehicle: saline with Tween-80 93 % of control | dose: 25.0 mg/kg/injection, schedule: Q01DX009 (ip), vehicle: saline with Tween-80 92 % of control | [6] 117 % of control and 119 % of control | [7] 104 % of control

CN(C)C(=O)n1cc(Cl)c(=O)c2c3ncn(C)c3ccc21
inactive: dose: 60.0 mg/kg/injection, schedule: Q01DX005 (ip), vehicle: Klucel (hydroxypropylcellulose) (HPC) 108 % of control | [26] 101 % of control | [27] 100 % of control

O=C(CN1C(=O)c2ccccc2C1=O)OCCNCCCl
inactive: [20] 99 % of control | [21] 106 % of control | [25] 107 % of control

CCSC(=O)/C=C\C=[N+](/[O-])OC
inactive: dose: 12.5 mg/kg/injection, schedule: Q01DX009 (ip), vehicle: other 103 % of control | dose: 25.0 mg/kg/injection, schedule: Q01DX009 (ip), vehicle: other 104 % of control | dose: 50.0 mg/kg/injection, schedule: Q01DX009 (ip), vehicle: other 112 % of control and 94 % of control | dose: 100.0 mg/kg/injection, schedule: Q01DX009 (ip), vehicle: other 97 % of control
